From ChEMBL document CHEMBL5465560, “Selectivity Literature for EUbOPEN Chemogenomic Library” (2024) come the findings set out here.

The target in test [1] is Casein kinase I isoform alpha (Homo sapiens, UniProt P48729). Kind of test: Selectivity interaction (KinomeScan (DiscoverX)) EUB0001619a CSNK1A1. As to conditions: at 1 µM.
In test [2] the target is T1, Cyclin-dependent kinase 11A (Homo sapiens) (UniProt Q9UQ88).
T1 sequence (whole entry): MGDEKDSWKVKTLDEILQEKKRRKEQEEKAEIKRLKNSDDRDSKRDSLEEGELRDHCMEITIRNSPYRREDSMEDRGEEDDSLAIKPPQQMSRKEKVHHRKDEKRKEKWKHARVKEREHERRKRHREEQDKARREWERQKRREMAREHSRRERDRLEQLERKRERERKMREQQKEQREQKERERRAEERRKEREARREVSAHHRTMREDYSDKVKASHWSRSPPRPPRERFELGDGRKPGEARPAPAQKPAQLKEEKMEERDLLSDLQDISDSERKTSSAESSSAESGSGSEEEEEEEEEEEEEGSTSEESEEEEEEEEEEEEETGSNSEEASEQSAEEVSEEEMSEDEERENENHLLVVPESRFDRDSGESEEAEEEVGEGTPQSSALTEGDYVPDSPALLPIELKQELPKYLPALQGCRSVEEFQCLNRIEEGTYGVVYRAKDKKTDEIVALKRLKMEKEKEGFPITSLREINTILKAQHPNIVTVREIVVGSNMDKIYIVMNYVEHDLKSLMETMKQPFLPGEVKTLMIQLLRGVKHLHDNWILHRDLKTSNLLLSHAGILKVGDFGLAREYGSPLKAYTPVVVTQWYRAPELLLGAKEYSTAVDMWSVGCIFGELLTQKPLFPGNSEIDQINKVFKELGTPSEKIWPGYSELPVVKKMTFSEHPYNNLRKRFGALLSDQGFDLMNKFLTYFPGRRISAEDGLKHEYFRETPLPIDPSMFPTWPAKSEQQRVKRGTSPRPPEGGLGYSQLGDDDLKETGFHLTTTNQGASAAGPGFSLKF
As to conditions: at 10 µM.

The target in test [3] is Serine/threonine-protein kinase PAK 4 (Homo sapiens, UniProt O96013). Kind of test: Selectivity interaction (KinomeScan (DiscoverX)) EUB0000666a PAK4. As to conditions: at 10 µM.
In test [4] the test system is Phosphatidylinositol 4,5-bisphosphate 3-kinase catalytic subunit alpha isoform (Homo sapiens), P42336 [E545A]. Conditions: at 10 µM.
In test [5] the target is Calcium/calmodulin-dependent protein kinase type 1D (Homo sapiens) (UniProt Q8IU85). The experiment in a line: Selectivity interaction (KinomeScan (DiscoverX)) EUB0000045b CAMK1D.
The target in test [6] is Tyrosine-protein kinase Yes (Homo sapiens) (UniProt P07947). The experiment in a line: Selectivity interaction (Ambit KINOMEscan and KiNATiv profiling in Jurkat cells) EUB0000090b YES1. Format: cell-based. Conditions: at 1 µM.
Test [7] has as its target cAMP-dependent protein kinase catalytic subunit alpha (Homo sapiens, UniProt P17612). Kind of test: Selectivity interaction (KinomeScan (DiscoverX)) EUB0001049a PRKACA. As to conditions: at 1 µM.
Test [8] deals with T2, Serine/threonine-protein kinase NLK (Homo sapiens) (UniProt Q9UBE8).
T2 sequence (whole entry): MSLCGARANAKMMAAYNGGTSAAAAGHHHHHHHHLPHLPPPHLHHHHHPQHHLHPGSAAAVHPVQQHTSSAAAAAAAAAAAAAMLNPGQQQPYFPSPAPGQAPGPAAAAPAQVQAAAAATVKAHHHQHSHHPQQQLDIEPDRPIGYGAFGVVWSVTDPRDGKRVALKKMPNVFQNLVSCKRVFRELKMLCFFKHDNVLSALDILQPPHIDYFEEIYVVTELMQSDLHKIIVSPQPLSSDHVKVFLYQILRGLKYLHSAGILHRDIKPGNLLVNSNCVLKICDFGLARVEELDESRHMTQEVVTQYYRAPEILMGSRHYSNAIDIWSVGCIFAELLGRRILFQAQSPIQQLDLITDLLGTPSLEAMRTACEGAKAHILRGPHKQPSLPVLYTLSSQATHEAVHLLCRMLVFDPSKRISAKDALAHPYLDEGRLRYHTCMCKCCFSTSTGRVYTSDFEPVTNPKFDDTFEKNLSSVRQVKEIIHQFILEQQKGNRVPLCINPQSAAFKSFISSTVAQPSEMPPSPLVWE
Kind of test: Selectivity interaction (KinomeScan (DiscoverX)) EUB0001868a NLK. Conditions: at 1 µM.

Test [9] deals with Mitogen-activated protein kinase 8 (Homo sapiens, UniProt P45983). The experiment in a line: Selectivity interaction (KinomeScan (DiscoverX)) EUB0000618a MAPK8. Conditions: at 10 µM.
The target of test [10] is Macrophage colony-stimulating factor 1 receptor (Homo sapiens) (UniProt P07333). Kind of test: Selectivity interaction (KinomeScan (DiscoverX)) EUB0000618a CSF1R. As to conditions: at 10 µM.
Test [11] deals with T3, Membrane-associated tyrosine- and threonine-specific cdc2-inhibitory kinase (Homo sapiens) (UniProt Q99640).
T3 sequence (whole entry): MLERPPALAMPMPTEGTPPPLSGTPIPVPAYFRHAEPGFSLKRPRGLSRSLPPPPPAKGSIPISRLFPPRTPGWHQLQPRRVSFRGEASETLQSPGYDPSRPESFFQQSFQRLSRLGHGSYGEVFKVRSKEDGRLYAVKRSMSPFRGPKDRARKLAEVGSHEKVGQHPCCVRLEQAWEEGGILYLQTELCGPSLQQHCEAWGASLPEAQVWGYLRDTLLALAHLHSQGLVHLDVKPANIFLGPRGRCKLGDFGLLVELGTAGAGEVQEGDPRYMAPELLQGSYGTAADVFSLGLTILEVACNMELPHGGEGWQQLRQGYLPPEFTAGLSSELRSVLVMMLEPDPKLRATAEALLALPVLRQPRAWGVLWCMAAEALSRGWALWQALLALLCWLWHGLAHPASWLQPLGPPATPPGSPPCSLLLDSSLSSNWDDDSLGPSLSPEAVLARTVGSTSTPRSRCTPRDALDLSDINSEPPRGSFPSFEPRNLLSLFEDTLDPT
The experiment in a line: Selectivity interaction (Kinase panel (DSF assay)) EUB0001558a PKMYT1. (DSF heats the sample and reads unfolding from a dye or from intrinsic fluorescence.)

Test [12] has as its target Tyrosine-protein kinase Lyn (Homo sapiens, UniProt P07948). Kind of test: Selectivity interaction (KinomeScan (DiscoverX)) EUB0000229b LYN. As to conditions: at 10 µM.

Sequence of Calcium/calmodulin-dependent protein kinase type 1D (Homo sapiens) (Q8IU85 whole entry, looked up): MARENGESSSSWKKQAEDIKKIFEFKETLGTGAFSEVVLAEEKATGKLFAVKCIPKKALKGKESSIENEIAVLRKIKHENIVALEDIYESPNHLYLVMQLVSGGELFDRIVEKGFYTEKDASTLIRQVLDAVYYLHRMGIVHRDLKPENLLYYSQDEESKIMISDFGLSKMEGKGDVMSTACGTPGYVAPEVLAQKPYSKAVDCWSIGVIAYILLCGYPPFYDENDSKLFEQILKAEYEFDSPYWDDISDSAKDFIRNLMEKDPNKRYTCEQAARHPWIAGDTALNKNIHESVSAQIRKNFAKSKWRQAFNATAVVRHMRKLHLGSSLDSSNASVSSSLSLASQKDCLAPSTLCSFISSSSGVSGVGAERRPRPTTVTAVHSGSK
Sequence of Serine/threonine-protein kinase PAK 4 (O96013 whole entry, looked up, canonical isoform): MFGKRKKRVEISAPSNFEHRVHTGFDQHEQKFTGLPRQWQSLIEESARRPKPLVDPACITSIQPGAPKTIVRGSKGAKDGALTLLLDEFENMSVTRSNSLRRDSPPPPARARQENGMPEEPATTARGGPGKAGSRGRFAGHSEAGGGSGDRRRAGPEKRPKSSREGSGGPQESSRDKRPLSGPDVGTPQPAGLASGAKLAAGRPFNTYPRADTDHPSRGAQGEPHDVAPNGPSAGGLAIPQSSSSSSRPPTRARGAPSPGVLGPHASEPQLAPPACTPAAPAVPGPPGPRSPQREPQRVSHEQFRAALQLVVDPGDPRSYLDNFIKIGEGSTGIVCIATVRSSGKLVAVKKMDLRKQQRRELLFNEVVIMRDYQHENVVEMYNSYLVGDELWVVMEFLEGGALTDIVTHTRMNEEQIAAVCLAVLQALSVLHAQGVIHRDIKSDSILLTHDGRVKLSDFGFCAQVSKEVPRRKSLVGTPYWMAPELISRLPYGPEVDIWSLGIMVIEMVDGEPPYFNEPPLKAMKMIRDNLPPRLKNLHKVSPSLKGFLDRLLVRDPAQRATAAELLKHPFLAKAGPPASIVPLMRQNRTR
Sequence of Mitogen-activated protein kinase 8 (P45983 whole entry): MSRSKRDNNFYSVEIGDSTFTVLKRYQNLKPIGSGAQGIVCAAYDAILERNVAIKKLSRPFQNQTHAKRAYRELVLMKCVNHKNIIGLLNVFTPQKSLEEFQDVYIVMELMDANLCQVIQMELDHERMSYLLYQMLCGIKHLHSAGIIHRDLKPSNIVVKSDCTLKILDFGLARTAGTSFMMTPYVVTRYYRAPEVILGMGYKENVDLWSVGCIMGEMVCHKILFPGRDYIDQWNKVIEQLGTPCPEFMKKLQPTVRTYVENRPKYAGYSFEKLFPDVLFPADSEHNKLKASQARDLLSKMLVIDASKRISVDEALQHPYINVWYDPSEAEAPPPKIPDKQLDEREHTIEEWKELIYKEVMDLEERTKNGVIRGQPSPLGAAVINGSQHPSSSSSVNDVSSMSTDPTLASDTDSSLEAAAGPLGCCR
Sequence of Tyrosine-protein kinase Lyn (P07948 2-512 limits assumed): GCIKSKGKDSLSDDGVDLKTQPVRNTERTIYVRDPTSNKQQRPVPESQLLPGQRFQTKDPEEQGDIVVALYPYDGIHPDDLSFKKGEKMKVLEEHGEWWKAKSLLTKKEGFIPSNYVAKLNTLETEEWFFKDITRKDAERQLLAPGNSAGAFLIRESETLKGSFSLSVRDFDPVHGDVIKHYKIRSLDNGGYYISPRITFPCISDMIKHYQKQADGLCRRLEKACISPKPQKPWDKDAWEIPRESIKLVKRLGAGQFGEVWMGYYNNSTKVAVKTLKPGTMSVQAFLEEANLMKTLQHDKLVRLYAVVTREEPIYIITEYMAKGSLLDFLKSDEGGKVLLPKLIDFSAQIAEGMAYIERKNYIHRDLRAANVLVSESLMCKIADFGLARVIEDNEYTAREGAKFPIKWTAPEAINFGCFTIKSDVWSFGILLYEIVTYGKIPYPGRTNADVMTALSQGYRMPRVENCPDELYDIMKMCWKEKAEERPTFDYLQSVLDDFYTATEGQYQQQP
Sequence of Casein kinase I isoform alpha (P48729 2-337 limits assumed): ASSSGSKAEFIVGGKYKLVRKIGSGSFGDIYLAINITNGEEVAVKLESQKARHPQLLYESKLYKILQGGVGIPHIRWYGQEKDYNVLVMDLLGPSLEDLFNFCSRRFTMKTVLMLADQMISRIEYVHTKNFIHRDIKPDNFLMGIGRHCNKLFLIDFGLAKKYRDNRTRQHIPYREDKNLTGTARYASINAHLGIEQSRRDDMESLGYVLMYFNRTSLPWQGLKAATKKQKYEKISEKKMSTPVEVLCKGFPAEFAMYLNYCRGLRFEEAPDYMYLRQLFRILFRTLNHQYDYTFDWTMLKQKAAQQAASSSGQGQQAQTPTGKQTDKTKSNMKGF
Sequence of Macrophage colony-stimulating factor 1 receptor (Homo sapiens) (P07333 whole entry): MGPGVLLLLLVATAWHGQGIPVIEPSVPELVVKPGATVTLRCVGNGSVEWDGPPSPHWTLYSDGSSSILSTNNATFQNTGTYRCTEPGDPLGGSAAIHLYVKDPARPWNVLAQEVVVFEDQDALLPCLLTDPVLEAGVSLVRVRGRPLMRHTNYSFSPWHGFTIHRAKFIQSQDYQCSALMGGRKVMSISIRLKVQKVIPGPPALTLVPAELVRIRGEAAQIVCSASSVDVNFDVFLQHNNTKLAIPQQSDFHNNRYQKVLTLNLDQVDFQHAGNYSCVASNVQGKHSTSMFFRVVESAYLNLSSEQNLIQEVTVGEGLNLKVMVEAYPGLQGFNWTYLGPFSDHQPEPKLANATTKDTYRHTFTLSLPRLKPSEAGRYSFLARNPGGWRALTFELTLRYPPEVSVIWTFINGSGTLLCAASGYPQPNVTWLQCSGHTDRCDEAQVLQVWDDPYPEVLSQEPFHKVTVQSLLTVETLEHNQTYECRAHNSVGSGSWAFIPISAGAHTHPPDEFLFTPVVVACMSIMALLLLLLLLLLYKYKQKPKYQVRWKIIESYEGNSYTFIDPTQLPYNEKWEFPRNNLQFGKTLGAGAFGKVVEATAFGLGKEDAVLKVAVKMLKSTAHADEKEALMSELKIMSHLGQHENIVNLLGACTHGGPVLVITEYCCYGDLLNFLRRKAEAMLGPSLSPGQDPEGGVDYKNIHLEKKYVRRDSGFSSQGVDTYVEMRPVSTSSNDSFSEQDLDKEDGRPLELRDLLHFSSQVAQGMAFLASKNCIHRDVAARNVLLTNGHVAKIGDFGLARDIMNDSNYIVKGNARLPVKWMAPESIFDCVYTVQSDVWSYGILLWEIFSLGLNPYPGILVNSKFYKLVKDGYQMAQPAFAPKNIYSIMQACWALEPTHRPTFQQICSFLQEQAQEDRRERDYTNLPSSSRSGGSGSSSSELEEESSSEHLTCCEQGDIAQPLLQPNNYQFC
Sequence of Phosphatidylinositol 4,5-bisphosphate 3-kinase catalytic subunit alpha isoform (Homo sapiens), P42336 [E545A] (P42336 whole entry E545A, canonical isoform): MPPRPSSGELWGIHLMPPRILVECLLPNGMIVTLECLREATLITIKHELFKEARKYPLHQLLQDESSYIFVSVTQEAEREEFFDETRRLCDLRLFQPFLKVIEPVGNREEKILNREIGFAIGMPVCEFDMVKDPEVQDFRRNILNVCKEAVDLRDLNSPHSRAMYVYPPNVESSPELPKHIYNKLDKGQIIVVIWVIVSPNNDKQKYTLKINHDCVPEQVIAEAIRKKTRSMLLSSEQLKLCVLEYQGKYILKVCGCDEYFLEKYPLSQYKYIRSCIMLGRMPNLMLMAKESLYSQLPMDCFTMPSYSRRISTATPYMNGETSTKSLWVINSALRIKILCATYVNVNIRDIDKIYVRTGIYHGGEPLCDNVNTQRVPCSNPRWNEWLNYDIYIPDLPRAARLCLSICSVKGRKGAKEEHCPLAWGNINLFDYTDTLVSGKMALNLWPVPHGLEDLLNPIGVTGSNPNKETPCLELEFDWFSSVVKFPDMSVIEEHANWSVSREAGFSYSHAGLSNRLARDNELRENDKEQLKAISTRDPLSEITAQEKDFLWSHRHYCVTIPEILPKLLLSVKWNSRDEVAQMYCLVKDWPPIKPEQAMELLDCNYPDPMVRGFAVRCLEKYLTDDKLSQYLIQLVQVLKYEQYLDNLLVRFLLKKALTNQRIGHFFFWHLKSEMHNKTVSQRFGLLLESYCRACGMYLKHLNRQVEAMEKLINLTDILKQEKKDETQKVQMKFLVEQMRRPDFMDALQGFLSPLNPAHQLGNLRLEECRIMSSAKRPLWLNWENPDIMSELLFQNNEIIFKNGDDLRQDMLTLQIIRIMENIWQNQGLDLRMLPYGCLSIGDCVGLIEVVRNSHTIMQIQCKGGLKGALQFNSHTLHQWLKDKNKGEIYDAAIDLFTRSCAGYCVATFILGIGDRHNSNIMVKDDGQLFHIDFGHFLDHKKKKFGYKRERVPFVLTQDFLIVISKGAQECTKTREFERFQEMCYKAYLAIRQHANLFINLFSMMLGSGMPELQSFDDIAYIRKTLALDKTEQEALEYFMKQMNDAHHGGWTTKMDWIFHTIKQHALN
Sequence of Tyrosine-protein kinase Yes (Homo sapiens) (P07947 2-543 limits assumed): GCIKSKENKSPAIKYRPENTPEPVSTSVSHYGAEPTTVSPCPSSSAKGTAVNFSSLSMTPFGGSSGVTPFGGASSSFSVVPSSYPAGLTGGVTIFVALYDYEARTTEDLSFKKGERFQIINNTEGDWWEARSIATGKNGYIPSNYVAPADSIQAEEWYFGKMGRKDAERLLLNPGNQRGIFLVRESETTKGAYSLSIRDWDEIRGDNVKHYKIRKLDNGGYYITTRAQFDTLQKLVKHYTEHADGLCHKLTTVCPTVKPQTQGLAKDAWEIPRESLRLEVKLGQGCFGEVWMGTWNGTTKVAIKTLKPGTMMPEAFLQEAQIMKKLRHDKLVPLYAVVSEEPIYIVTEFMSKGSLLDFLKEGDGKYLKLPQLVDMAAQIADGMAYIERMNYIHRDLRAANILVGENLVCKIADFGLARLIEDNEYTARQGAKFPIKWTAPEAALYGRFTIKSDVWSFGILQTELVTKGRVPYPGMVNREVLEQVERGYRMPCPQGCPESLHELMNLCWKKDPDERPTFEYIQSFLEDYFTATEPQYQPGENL

Take `N#Cc1cccc(-c2c[nH]c3ncnc(N4CCOCC4)c23)c1`: the % of control in test [1] is 100%.
In turn, `CCN(CC)CCCCNc1ncc2cc(-c3cc(OC)cc(OC)c3)c(NC(=O)NC(C)(C)C)nc2n1` showed a % of control in [2] of 100%.
In test [3], `O=C(NOC[C@H](O)CO)c1ccc(F)c(F)c1Nc1ccc(I)cc1F` had a % of control of 100%.
The compound `CNC(=O)Nc1ccc(-c2nc(N3CC4CCC(C3)O4)c3cnn(C4CCC5(CC4)OCCO5)c3n2)cc1` showed a % of control in test [4] of 8.8%.
Consider `C=CC(=O)Nc1cc(-n2c(=O)ccc3cnc4ccc(-c5ccc(NS(C)(=O)=O)cc5)cc4c32)ccc1C`, for which the % of control turned out to be 100% in test [5] (at 1 µM) and 77% in [5] (at 10 µM).
In turn, `CN(C)C/C=C/C(=O)Nc1ccc(C(=O)N2CCCC(Nc3ncc(Cl)c(-c4c[nH]c5ccccc45)n3)C2)cc1` (stereo not drawn) yielded a % of control in [6] of 94%.
The compound `COc1cc(Nc2nc(C)cc(-c3cnn4nc(OC)ccc34)n2)cc(C(F)(F)F)c1` had a % of control in [7] of 92%.
In test [8], `Cc1cc(-c2ccnc(Nc3cnn(C)c3)n2)ccc1CNC(=O)N1CC(OC(C)C)C1` registered a % of control of 46%.
Consider `O[C@H]1CC[C@H](Nc2ncc3nc(Nc4c(F)cc(F)cc4F)n([C@H]4CCOC4)c3n2)CC1`, for which the % of control was 0% in test [9] and 64% in test [10].
Turning to `CC(C)(O)[C@H](F)CN1Cc2cc(NC(=O)c3cnn4cccnc34)c(N3CCOCC3)cc2C1=O`, the dTM in test [11] stood at 0.5 K.
`COc1cc(N(C)c2ccnc3ccc(C(F)(F)F)cc23)cc(OC)c1OC` yielded a % binding in test [12] of 96%.
